In US9808469B2, “Antitumor activity of multi-kinase inhibitors in triple negative breast cancer” (ENTRECHEM, S.L, priority 2014, dated 2017):

Experiments:
Assay type in all cases: cell-based
BT-549 cells = assay: MTT metabolization, inhibition of BT-549 cell proliferation
Method: (§1) These triple negative breast cancer cell lines were obtained from the American Type Culture Collection Cell Biology Collection (ATCC) (Manassas, Va.). The medium was changed every 2 days.
(§2) Cell proliferation and growth experiments were carried out using 3-(4,5-dimethylthiazol-2-yl)-2,5-diphenyltetrazolium bromide (MTT) uptake assays, where MTT is reduced to purple formazan by the mitochondria of living cells. Increase in cell number is detected by augmented MTT metabolization, and decrease in cell number is reflected by a decrease. […] The cells were treated with the drug at different concentrations to plot the dose-response curves in all cancer cell lines using in the study. […] After treatment, each well was replaced with 250 μL of fresh medium containing MTT ([…]) and incubated for 1 hour. The medium was then removed and 500 μL of dimethyl sulfoxide was added to each well. The plate was agitated in the dark for 5 minutes to dissolve the MTT-formazan crystals. The absorbance of the samples was recorded at 562 nm in a multi-well plate reader (BMG labtech). Results were plotted as the mean values of quadruplicates from a representative experiment that was repeated at least two independent times.
(§3) Combination index values less than 1 indicate synergism, values equal to 1 indicate an additive effect, whereas values greater than 1 indicate antagonism. Combination index values from three independent experiments were generated.

HS578T cells = assay: MTT metabolization, inhibition of HS578T cell proliferation
Method: as §1, §2, §3

MDA-MB-231 cells = assay: MTT metabolization, inhibition of MDA-MB-231 cell proliferation
Method: as §1, §2, §3

SMILES: CC(=O)O[C@@]12CO[C@@H]1C[C@H](O)[C@@]1(C)C(=O)[C@H](O)C3=C(C)[C@@H](OC(=O)[C@H](O)[C@@H](NC(=O)OC(C)(C)C)c4ccccc4)C[C@@](O)([C@@H](OC(=O)c4ccccc4)[C@H]21)C3(C)C [Docetaxel, docetaxel, reference compound]
- inhibition at 0.0004 µM (BT-549 cells; Homo sapiens, BT-549, Docetaxel 0.4 nM alone, read-out: Percentage inhibition Docetaxel mean): 82%
- inhibition at 0.0008 µM (BT-549 cells; Homo sapiens, BT-549, Docetaxel 0.8 nM alone, read-out: Percentage inhibition Docetaxel mean): 36.1%
- inhibition at 0.0012 µM (BT-549 cells; Homo sapiens, BT-549, Docetaxel 1.2 nM alone, read-out: Percentage inhibition Docetaxel mean): 36.5%
- inhibition at 0.0016 µM (BT-549 cells; Homo sapiens, BT-549, Docetaxel 1.6 nM alone, read-out: Percentage inhibition Docetaxel mean): 36.1%
- percent inhibition of cell proliferation at 0.0004 µM (HS578T cells; Homo sapiens, Hs-578T, Docetaxel 0.4 nM alone, read-out: Percentage inhibition Docetaxel mean): 73%
- percent inhibition of cell proliferation at 0.0008 µM (HS578T cells; Homo sapiens, Hs-578T, Docetaxel 0.8 nM alone, read-out: Percentage inhibition Docetaxel mean): 49.6%
- percent inhibition of cell proliferation at 0.0012 µM (HS578T cells; Homo sapiens, Hs-578T, Docetaxel 1.2 nM alone, read-out: Percentage inhibition Docetaxel mean): 45.8%
- percent inhibition of cell proliferation at 0.0016 µM (HS578T cells; Homo sapiens, Hs-578T, Docetaxel 1.6 nM alone, read-out: Percentage inhibition Docetaxel mean): 47.9%
- viability at 0.0004 µM (MDA-MB-231 cells; Homo sapiens, MDA-MB-231, Docetaxel 0.4 nM alone, read-out: Percentage inhibition Docetaxel mean): 59.3%
- viability at 0.0008 µM (MDA-MB-231 cells; Homo sapiens, MDA-MB-231, Docetaxel 0.8 nM alone, read-out: Percentage inhibition Docetaxel mean): 33.8%
- viability at 0.0012 µM (MDA-MB-231 cells; Homo sapiens, MDA-MB-231, Docetaxel 1.2 nM alone, read-out: Percentage inhibition Docetaxel mean): 25.3%
- viability at 0.0016 µM (MDA-MB-231 cells; Homo sapiens, MDA-MB-231, Docetaxel 1.6 nM alone, read-out: Percentage inhibition Docetaxel mean): 25.3%

SMILES: N.N.O=C([O-])C1(C(=O)[O-])CCC1.[Pt+2] [Carboplatin, carboplatin, reference compound]
- Percentage inhibition Carboplatin mean (BT-549 cells; Carboplatin 80 nM alone): 37.09%
- Percentage inhibition Carboplatin mean (BT-549 cells; Carboplatin 120 nM alone): 21.43%
- Percentage inhibition Carboplatin mean (BT-549 cells; Carboplatin 160 nM alone): 19.39%
- Percentage inhibition Carboplatin mean (BT-549 cells; Carboplatin 200 nM alone): 15.69%
- Percentage inhibition Carboplatin mean (HS578T cells; Carboplatin 80 nM alone): 70.90%
- Percentage inhibition Carboplatin mean (HS578T cells; Carboplatin 120 nM alone): 60.26%
- Percentage inhibition Carboplatin mean (HS578T cells; Carboplatin 160 nM alone): 50.49%
- Percentage inhibition Carboplatin mean (HS578T cells; Carboplatin 200 nM alone): 24.33%
- Percentage inhibition Carboplatin mean (MDA-MB-231 cells; Carboplatin 80 nM alone): 74.70%
- Percentage inhibition Carboplatin mean (MDA-MB-231 cells; Carboplatin 120 nM alone): 62.30%
- Percentage inhibition Carboplatin mean (MDA-MB-231 cells; Carboplatin 160 nM alone): 61.11%
- Percentage inhibition Carboplatin mean (MDA-MB-231 cells; Carboplatin 200 nM alone): 58.21%
